The text below walks through data of US8729061B2, “Pyrrolidine derivatives” (Hoffmann-La Roche Inc., priority 2011, dated 2014).

Structures are written as SMILES.

Common to all, as to assay type: biochemical
The target in one experiment is human Cathepsin S (Homo sapiens (Human), UniProt P25774). Nature of the experiment: Cathepsin enzyme inhibition assay (fluorogenic peptide substrate), Cat S. The following applies: enzyme 1 nM, substrate Z-Val-Val-Arg-AMC 20 μM, pH 6.5. Here is the method: (§1) Enzyme activity is measured by observing the increase in fluorescence intensity caused by cleavage of a peptide substrate containing a fluorophore whose emission is quenched in the intact peptide.
Chain of human Cathepsin S (P25774 115-331): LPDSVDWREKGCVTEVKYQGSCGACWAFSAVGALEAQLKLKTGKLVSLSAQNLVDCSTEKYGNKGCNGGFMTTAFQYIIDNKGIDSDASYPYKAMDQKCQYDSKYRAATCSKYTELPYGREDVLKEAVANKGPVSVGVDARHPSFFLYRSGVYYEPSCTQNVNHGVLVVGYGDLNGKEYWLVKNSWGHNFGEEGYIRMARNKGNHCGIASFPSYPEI
(§2) Assay buffer: 100 mM potassium phosphate pH 6.5, EDTA-Na 5 mM, Triton X-100 0.001%, DTT 5 mM.
(§3) Enzymes (all at 1 nM): human and mouse Cathepsin S, Cat K, Cat B, Cat L. Substrate (20 μM): Z-Val-Val-Arg-AMC, except for Cat K which uses Z-Leu-Arg-AMC (both from Bachem).
(§4) Excitation 360 nm, Emission 465 nm.
(§5) Enzyme is added to the substance dilutions in 96-well microtitre plates and the reaction is started with substrate. […] IC50 are calculated by standard methods. Inhibition of human Cat S, mouse Cat S, human Cat K, mouse Cat K, human Cat B, mouse Cat B, human Cat L and mouse Cat L have been measured separately.

A further experiment deals with human Cat L (Homo sapiens (Human), UniProt P07711). Nature of the experiment: Cathepsin enzyme inhibition assay (fluorogenic peptide substrate), Cat L. The following applies: enzyme 1 nM, substrate Z-Val-Val-Arg-AMC 20 μM, pH 6.5. On the procedure: as §1, §2, §3, §4, §5
Chain of human Cat L (P07711 114-333): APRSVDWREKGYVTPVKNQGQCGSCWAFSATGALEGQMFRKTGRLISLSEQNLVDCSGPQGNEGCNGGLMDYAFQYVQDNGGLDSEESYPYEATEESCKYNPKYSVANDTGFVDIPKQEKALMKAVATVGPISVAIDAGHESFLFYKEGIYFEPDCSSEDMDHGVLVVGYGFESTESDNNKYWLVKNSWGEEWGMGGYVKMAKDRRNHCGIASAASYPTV
A further experiment has as its target human Cat K (Homo sapiens (Human), UniProt P43235). The experiment can be described thus: Cathepsin enzyme inhibition assay (fluorogenic peptide substrate), Cat K. The following applies: enzyme 1 nM, substrate Z-Leu-Arg-AMC 20 μM, pH 6.5. Here is the method: as §1, §2, §3, §4, §5
The target in a further experiment is human Cat B (Homo sapiens (Human), UniProt P07858). Nature of the experiment: Cathepsin enzyme inhibition assay (fluorogenic peptide substrate), Cat B. The following applies: enzyme 1 nM, substrate Z-Val-Val-Arg-AMC 20 μM, pH 6.5. On the procedure: as §1, §2, §3, §4, §5

Chain of human Cat K (P43235 115-329): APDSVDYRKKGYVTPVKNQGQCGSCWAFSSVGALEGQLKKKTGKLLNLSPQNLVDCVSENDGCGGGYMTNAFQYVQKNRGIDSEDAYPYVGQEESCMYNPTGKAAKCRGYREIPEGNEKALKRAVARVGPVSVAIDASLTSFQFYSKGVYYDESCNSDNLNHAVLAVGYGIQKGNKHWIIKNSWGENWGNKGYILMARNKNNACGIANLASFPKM

The IC50 is the midpoint of a concentration-inhibition curve. Low values mean greater potency in that assay, high ones weaker potency in that assay. Turning to `CC[C@H](NC(=O)[C@@H]1C[C@@H](S(=O)(=O)c2ccccc2Cl)CN1C(=O)C1(c2ccc(Cl)cc2)CC1)C(=O)c1nc2ccccc2o1` [Example 12, (2S,4R)—N—((S)-1-(benzo[d]oxazol-2-yl)-1-oxobutan-2-yl)-1-(1-(4-chlorophenyl)cyclopropanecarbonyl)-4-(2-chlorophenylsulfonyl)pyrrolidine-2-carboxamide], the IC50 on human Cathepsin S stood at 0.737 nM; on human Cat L, 21.2 nM; on human Cat K, 360 nM; against human Cat B, 183 nM.

As to `CC[C@H](NC(=O)[C@@H]1C[C@@H](S(=O)(=O)c2ccccc2Cl)CN1C(=O)C1(c2ccc(Cl)cc2F)CC1)C(=O)C(=O)NC1CC1` [Example 13, (2S,4R)-1-(1-(4-chloro-2-fluorophenyl)cyclopropanecarbonyl)-4-(2-chlorophenylsulfonyl)-N—((S)-1-(cyclopropylamino)-1,2-dioxopentan-3-yl)pyrrolidine-2-carboxamide], the IC50 against human Cathepsin S stood at 0.704 nM; against human Cat L, 11.3 nM; on human Cat K it was 67.9 nM; against human Cat B it was 142 nM.

For the compound `CC[C@H](NC(=O)[C@@H]1C[C@@H](S(=O)(=O)c2ccccc2Cl)CN1C(=O)C1(c2ccc(Br)cc2F)CC1)C(=O)C(=O)NC1CC1` [Example 14, (2S,4R)-1-(1-(4-bromo-2-fluorophenyl)cyclopropanecarbonyl)-4-(2-chlorophenylsulfonyl)-N—((S)-1-(cyclopropylamino)-1,2-dioxopentan-3-yl)pyrrolidine-2-carboxamide], the IC50 on human Cathepsin S was found to be 0.668 nM; on human Cat L it was 10.4 nM; against human Cat K, 37.3 nM; against human Cat B it was 150 nM.

In the case of `CC[C@H](NC(=O)[C@@H]1C[C@@H](S(=O)(=O)c2ccccc2Cl)CN1C(=O)C1(c2ccc(Br)cc2)CC1)C(=O)C(=O)NC1CC1` [Example 15, (2S,4R)-1-(1-(4-bromophenyl)cyclopropanecarbonyl)-4-(2-chlorophenylsulfonyl)-N—((S)-1-(cyclopropylamino)-1,2-dioxopentan-3-yl)pyrrolidine-2-carboxamide], the IC50 came to 0.52 nM on human Cathepsin S, 8.2 nM at human Cat L, 44.8 nM at human Cat K and 98.5 nM against human Cat B.

Regarding `CCC[C@H](NC(=O)[C@@H]1C[C@@H](S(=O)(=O)c2ccccc2Cl)CN1C(=O)C1(c2ccc(Br)cc2)CC1)C(=O)C(=O)NC1CC1` [Example 16, (2S,4R)-1-(1-(4-bromophenyl)cyclopropanecarbonyl)-4-(2-chlorophenylsulfonyl)-N—((S)-1-(cyclopropylamino)-1,2-dioxohexan-3-yl)pyrrolidine-2-carboxamide], the 50% inhibitory concentration (IC50) on human Cathepsin S stood at 0.442 nM; against human Cat L, 5.9 nM; against human Cat K, 20.2 nM; at human Cat B, 45.4 nM.

On to `CCC[C@H](NC(=O)[C@@H]1C[C@@H](S(=O)(=O)c2ccccc2Cl)CN1C(=O)C1(c2ccc(I)cc2)CC1)C(=O)C(=O)NC1CC1` [Example 18, (2S,4R)-4-(2-chlorophenylsulfonyl)-N—((S)-1-(cyclopropylamino)-1,2-dioxohexan-3-yl)-1-(1-(4-iodophenyl)cyclopropanecarbonyl)pyrrolidine-2-carboxamide], for which the IC50 against human Cathepsin S came out at 0.6 nM; at human Cat L it was 8.4 nM; against human Cat K it was 21 nM; at human Cat B, 70.1 nM.

Take `CC[C@H](NC(=O)[C@@H]1C[C@@H](S(=O)(=O)c2ccccc2C(F)(F)F)CN1C(=O)C1(c2ncc(Cl)cc2F)CC1)C(=O)C(=O)NC1CC1` [Example 19, (2S,4R)-1-(1-(5-chloro-3-fluoropyridin-2-yl)cyclopropanecarbonyl)-N—((S)-1-(cyclopropylamino)-1,2-dioxopentan-3-yl)-4-(2-(trifluoromethyl)phenylsulfonyl)pyrrolidine-2-carboxamide]: the IC50 came to 0.593 nM on human Cathepsin S, 32.4 nM against human Cat L, 758 nM at human Cat K and 424 nM against human Cat B.

For the compound `CCC[C@H](NC(=O)[C@@H]1C[C@@H](S(=O)(=O)c2ccccc2C(F)(F)F)CN1C(=O)C1(c2ncc(Cl)cc2F)CC1)C(=O)C(=O)NC1CC1` [Example 20, (2S,4R)-1-(1-(5-chloro-3-fluoropyridin-2-yl)cyclopropanecarbonyl)-N—((S)-1-(cyclopropylamino)-1,2-dioxohexan-3-yl)-4-(2-(trifluoromethyl)phenylsulfonyl)pyrrolidine-2-carboxamide], the half-maximal inhibitory concentration (IC50) at human Cathepsin S is 0.56 nM; at human Cat L it was 18.5 nM; against human Cat K, 347 nM; against human Cat B, 245 nM.

In the case of `CC[C@H](NC(=O)[C@@H]1C[C@@H](S(=O)(=O)c2ccccc2C(F)(F)F)CN1C(=O)C1(c2ccc(Cl)cc2)CC1)C(=O)C(=O)NC1CC1` [Example 21, (2S,4R)-1-(1-(4-chlorophenyl)cyclopropanecarbonyl)-N—((S)-1-(cyclopropylamino)-1,2-dioxopentan-3-yl)-4-(2-(trifluoromethyl)phenylsulfonyl)pyrrolidine-2-carboxamide], the IC50 stood at 0.668 nM at human Cathepsin S, 28.7 nM on human Cat L, 406 nM against human Cat K and 165 nM against human Cat B.

Regarding `CCC[C@H](NC(=O)[C@@H]1C[C@@H](S(=O)(=O)c2ccccc2C(F)(F)F)CN1C(=O)C1(c2ccc(Cl)cc2)CC1)C(=O)C(=O)NC1CC1` [Example 22, (2S,4R)-1-(1-(4-chlorophenyl)cyclopropanecarbonyl)-N—((S)-1-(cyclopropylamino)-1,2-dioxohexan-3-yl)-4-(2-(trifluoromethyl)phenylsulfonyl)pyrrolidine-2-carboxamide], the 50% inhibitory concentration (IC50) worked out at 0.983 nM on human Cathepsin S, 26.6 nM against human Cat L, 405 nM against human Cat K and 144 nM at human Cat B.

In the case of `CC[C@H](NC(=O)[C@@H]1C[C@@H](S(=O)(=O)c2ccccc2Cl)CN1C(=O)C1(c2ncc(Br)cc2F)CC1)C(=O)C(=O)NC1CC1` [Example 23, (2S,4R)-1-(1-(5-bromo-3-fluoropyridin-2-yl)cyclopropanecarbonyl)-4-(2-chlorophenylsulfonyl)-N—((S)-1-(cyclopropylamino)-1,2-dioxopentan-3-yl)pyrrolidine-2-carboxamide], the IC50 came out at 2.98 nM at human Cathepsin S, 42.1 nM against human Cat L, 299 nM on human Cat K and 1230 nM against human Cat B.

In the case of `CCC[C@H](NC(=O)[C@@H]1C[C@@H](S(=O)(=O)c2ccccc2Cl)CN1C(=O)C1(c2ncc(Cl)cc2F)CC1)C(=O)C(=O)NC1CC1` [Example 24, (2S,4R)-1-(1-(5-chloro-3-fluoropyridin-2-yl)cyclopropanecarbonyl)-4-(2-chlorophenylsulfonyl)-N—((S)-1-(cyclopropylamino)-1,2-dioxohexan-3-yl)pyrrolidine-2-carboxamide], the IC50 at human Cathepsin S is 0.55 nM; at human Cat L, 10.8 nM; against human Cat K, 71.7 nM; against human Cat B it was 190 nM.

As for `CC[C@H](NC(=O)[C@@H]1C[C@@H](S(=O)(=O)c2ccccc2Cl)CN1C(=O)C1(c2ncc(Cl)cc2F)CC1)C(=O)C(=O)NC1CC1` [Example 25, (2S,4R)-1-(1-(5-chloro-3-fluoropyridin-2-yl)cyclopropanecarbonyl)-4-(2-chlorophenylsulfonyl)-N—((S)-1-(cyclopropylamino)-1,2-dioxopentan-3-yl)pyrrolidine-2-carboxamide], the IC50 against human Cathepsin S worked out at 0.403 nM; on human Cat L it was 9.8 nM; against human Cat K, 97.7 nM; on human Cat B, 251 nM.

For `CC(C)(NC(=O)[C@@H]1C[C@@H](S(=O)(=O)c2ccccc2Cl)CN1C(=O)C1(c2ccc(Cl)cc2)CC1)C(=O)C(=O)NC1CC1` [Example 26, (2S,4R)-1-(1-(4-chlorophenyl)cyclopropanecarbonyl)-4-(2-chlorophenylsulfonyl)-N-(4-(cyclopropylamino)-2-methyl-3,4-dioxobutan-2-yl)pyrrolidine-2-carboxamide], the IC50 against human Cathepsin S is 10.5 nM; at human Cat L, 3100 nM; against human Cat K, 25000 nM; on human Cat B, 25000 nM.

In the case of `O=C(NC1CC1)C(=O)C1(NC(=O)[C@@H]2C[C@@H](S(=O)(=O)c3ccccc3Cl)CN2C(=O)C2(c3ccc(Cl)cc3)CC2)CC1` [Example 27, (2S,4R)-1-(1-(4-chlorophenyl)cyclopropanecarbonyl)-4-(2-chlorophenylsulfonyl)-N-(1-(2-(cyclopropylamino)-2-oxoacetyl)cyclopropyl)pyrrolidine-2-carboxamide], the IC50 worked out at 17.9 nM at human Cathepsin S, 6800 nM against human Cat L, 25000 nM against human Cat K and 25000 nM against human Cat B.

Regarding `CC(C)C[C@H](NC(=O)[C@@H]1C[C@@H](S(=O)(=O)c2ccccc2Cl)CN1C(=O)C1(c2ccc(Cl)cc2)CC1)C(=O)C(=O)NC1CC1` [Example 29, (2S,4R)-1-(1-(4-chlorophenyl)cyclopropanecarbonyl)-4-(2-chlorophenylsulfonyl)-N—((S)-1-(cyclopropylamino)-5-methyl-1,2-dioxohexan-3-yl)pyrrolidine-2-carboxamide], the IC50 at human Cathepsin S is 1.27 nM; against human Cat L, 18.4 nM; on human Cat K it was 69 nM; on human Cat B, 178 nM.
